Tests used:
[1] = tested on: anterior limb long bone, bone resorption induced by PTH, IL-1 or vitamin D3; test: Inhibition of 45Ca liberation (bone resorption activity) from cultured fetal long bone; type: cell-based, rat; conditions: 72 hours culture; for inhibition of bone resorption induced by the PTH: 10^−8M, 10^−7M and 10^−6M, PTH 10^−8M; for inhibition of bone resorption due to vitamin D3 or IL-1: IL-1 0.3 ng/ml, vitamin D3 10^−8M
Description: The effects of the reveromycin A derivatives on the facilitation of the bone resorption due to the parathyroid hormone (PTH) were measured.
A19-day pregnant rat was subjected to the hypodermic injection of [^45Ca]CaCl2 to label a fetal bone. After 24 hours, the anterior limb long bone was extracted. For an anterior limb long bone, a Dulbecco-modified Eagle medium (DMEM) containing 15% heat-inactivated horse serum and 100 U/ml penicillin was used as a culture medium and then incubated for 72 hours together with a bone resorption factor (PTH 10^−8M, IL-1 0.3 ng/ml, vitamin D3 10^−8M) and the reveromycin A derivatives. After incubation, ^45Ca radioactivities in a solution into which calcium of the bone was eluted by 0.1 N HCl and in the culture solution were measured using a liquid scintillation counter. The ratio of the amount of calcium released into the culture solution to the total amount of calcium (bone resorption activity (%)) was used as an indicator and the effects of the reveromycin A derivatives on the facilitation of the bone resorption due to the PTH was investigated. • Bone resorption activity (%)=100×Amount of ^45Ca released into culture solution/(Amount of ^45Ca released into culture solution+Amount of ^45Ca left in bone)

[2] = tested on: undifferentiated RAW264 cells; test: Cell-death inducing activity on undifferentiated RAW264 cells, MTT method; type: cell-based, mouse; conditions: for CC50: Mus musculus, RAW264.7, 24 hours incubation, MTT, read-out: ED50 level of cell-death inducing activity to undifferentiated RAW264 cells, MTT; for growth inhibitory action on the osteoclast precursor cells RAW264: even at a comparatively high concentration
Description: The cell-death inducing activities to the undifferentiated RAW264 cells were investigated by the MTT method (J. Immunol. Methods, Vol. 65, pp 55-63 (1983). The RAW 264 cells were plated on a 96-well plate at a density of 40,000 cells/100 μl and then incubated for 24 hours. After the 24-hour incubation, 50 μl of a culture medium containing a three-fold concentration of the drug was added and then incubated for 24 hours to investigate the cell-death inducing activity. Two hours before the measurement of the cell-death inducing activity, 15 μl of 0.5% MTT-PBS (phosphate buffer saline) was added and incubated. After that, the residue from which the culture solution was removed was dissolved in 100 μl of DMSO (dimethyl sulfoxide) and the absorbance at 570 nm (a reference wave length of 630 nm) was measured, followed by calculating the ED50 level of the cell-death inducing activity.

[3] = tested on: bone resorption due to parathyroid hormone (PTH); test: Serum calcium in TPTX rats with hypercalcemia by continuous PTH infusion; type: in vivo, SD rats; conditions: for increase in the level of serum calcium due to PTH: 80 mg/kg, TPTX SD rats, administered 12 hours after start of PTH, followed 24 hours; for duration of inhibitory action on bone resorption: comparison of calcitonin with reveromycin A derivatives
Description: The bone resorption inhibitory effects of the reveromycin A derivatives were examined by measuring the level of serum calcium released in the blood by the action of bone resorption. SD rats were subjected to an operation of extracting the thyroid glands and the parathyroid glands (TPTX). Next day, a decrease in serum calcium was confirmed and then the continuous infusion of the parathyroid hormone (PTH) was carried out, thereby creating rats each having hypercalcemia by accelerating the bone resorption.
At 12 hours from the initiation of PTH injection, the reveromycin A derivatives ([…]) or a sodium salt thereof ([…]) were administered and the level of serum calcium was then measured in time-course for 24 hours.

[4] = tested on: mature osteoclasts; test: Cell-death (apoptosis) inducing activity on mature osteoclasts, number of TRAP-stained multinuclear cells; type: cell-based, mouse; conditions: for EC50: Mus musculus, Osteoclast, RAW264-derived mature osteoclasts, 24 hours incubation, TRAP staining, read-out: ED50 level of cell-death inducing activity to mature osteoclasts, Number of cells; for selective apoptosis inducing effect on the mature osteoclasts: in words
Description: Using 29 different reveromycin A derivatives synthesized as described above, the cell-death inducing activities on the mature osteoclasts and undifferentiated macrophage-like cells derived from a mouse (RAW264 cells) were examined, respectively. The RAW264 cells, a mouse-macrophage cell line, were suspended in a 10% FBS-αMEM (manufactured by Gibco BRL Co., Ltd.) and then 12,000 cells/100 μl were inoculated in a 96-well plate. After 1-hour incubation, 100 μl of a culture medium containing RANKL ([…]) and PD98059 (40 μM) were added (final concentration: RANKL […] and PD98059 20 μM) and then incubated for 4 days to allow the differentiation of the cells to mature osteoclasts (J. Biol. Chem. Vol. 277, pp. 47366-47372 (2002)). Furthermore, on the second day of the culture, the half of the culture medium was replaced with new one. From each well of the plate where the cells were differentiated to the mature osteoclasts, 100 μl/well of the culture medium was removed. […] The apoptosis inducing activity was confirmed by the observation of agglutination of nuclei stained with 10 μM Hoechst 33258 for 10-minututes.

With `CCCC[C@@]1(OC(=O)CCC(=O)O)CC[C@]2(CC[C@H](C)[C@@H](C/C=C(C)/C=C/[C@H](O[Si](C)(C)C(C)(C)C)[C@@H](C)/C=C/C(=O)O)O2)O[C@H]1/C=C/C(C)=C/C(=O)O` [Compound 2, C5-silylether] the “inhibition of bone resorption induced by the PTH” value [1] was “inhibited the bone resorption induced by the PTH at 10^−8M, 10^−7M, and 10^−6M, in a concentration-dependent manner”, the “inhibition of bone resorption due to vitamin D3 or IL-1” value [1] was “could be also inhibited” and the CC50 [2] was 89 µM. The “growth inhibitory action on the osteoclast precursor cells RAW264” value [2] was “do not show any growth inhibitory action”, the “increase in the level of serum calcium due to PTH” value [3] was “significant suppression” and the “duration of inhibitory action on bone resorption” value [3] was “prolonged inhibitory action on bone resorption”. The EC50 [4] was 6.6 µM and the “selective apoptosis inducing effect on the mature osteoclasts” value [4] was “showed a selective apoptosis inducing effect”.

`CCCC[C@@]1(OC(=O)CCC(=O)O)CC[C@]2(CC[C@H](C)[C@@H](C/C=C(C)/C=C/[C@H](OC(C)=O)[C@@H](C)/C=C/C(=O)O)O2)O[C@H]1/C=C/C(C)=C/C(=O)O` [Compound 27, C5-acetate] was tested, and the “inhibition of bone resorption induced by the PTH” value [1] was “inhibited the bone resorption induced by the PTH at 10^−8M, 10^−7M, and 10^−6M, in a concentration-dependent manner”, the “inhibition of bone resorption due to vitamin D3 or IL-1” value [1] was “could be also inhibited” and the CC50 [2] was 49 µM. For the same molecule, the “growth inhibitory action on the osteoclast precursor cells RAW264” value [2] was “do not show any growth inhibitory action”, the “increase in the level of serum calcium due to PTH” value [3] was “significant suppression” and the “duration of inhibitory action on bone resorption” value [3] was “prolonged inhibitory action on bone resorption”. For the same molecule, the EC50 [4] was 1.3 µM and the “selective apoptosis inducing effect on the mature osteoclasts” value [4] was “showed a selective apoptosis inducing effect”.

— patent US20060173069A1, “Therapeutic agent for hyperpotassemia and bone disease” (RIKEN, priority 2003, published 2006)
